US9873696B2, “Neprilysin inhibitors” (THERAVANCE BIOPHARMA R&D IP, LLC, priority 2010, dated 2018)

What follows are compounds tested against T1, human NEP (Homo sapiens, UniProt P08473) (assay: In vitro enzyme inhibition assay at human NEP (Assay 1)). Conditions: recombinant enzyme, fluorogenic peptide substrate, 37° C.
T1 construct: purchased R&D Systems, Minneapolis, Minn; 1182-ZN
Assay type: biochemical
Experimental: In Vitro Assays for the Quantitation of Inhibitor Potencies (IC50) at Human and Rat NEP, and Human ACE
The inhibitory activities of compounds at human and rat neprilysin (EC 3.4.24.11; NEP) and human angiotensin converting enzyme (ACE) were determined using in vitro assays as described below.
Recombinant human NEP and recombinant human ACE were obtained commercially (R&D Systems, Minneapolis, Minn., catalog numbers 1182-ZN and 929-ZN, respectively). The fluorogenic peptide substrate Mca-D-Arg-Arg-Leu-Dap-(Dnp)-OH (Medeiros et al. (1997) Braz. J. Med. Biol. Res. 30:1157-62; Anaspec, San Jose, Calif.) and Abz-Phe-Arg-Lys(Dnp)-Pro-OH (Araujo et al. (2000) Biochemistry 39:8519-8525; Bachem, Torrance, Calif.) were used in the NEP and ACE assays respectively.
The assays were performed in 384-well white opaque plates at 37° C. using the fluorogenic peptide substrates at a concentration of 10 μM in Assay Buffer (NEP: 50 mM HEPES, pH 7.5, 100 mM NaCl, 0.01% polyethylene glycol sorbitan monolaurate (Tween-20), 10 μM ZnSO4; ACE: 50 mM HEPES, pH 7.5, 100 mM NaCl, 0.01% Tween-20, 1 μM ZnSO4).
Test compounds were assayed over the range of concentrations from […] to 20 μM. Test compounds were added to the enzymes and incubated for 30 minute at 37° C. prior to initiating the reaction by the addition of substrate. Reactions were terminated after 20 minutes of incubation at 37° C. by the addition of glacial acetic acid to a final concentration of 3.6% (v/v).
Plates were read on a fluorometer with excitation and emission wavelengths set to 320 nm and 405 nm, respectively. Inhibition constants were obtained by nonlinear regression of the data using the equation (GraphPad Software, Inc., San Diego, Calif.): v=v0/[1+(I/K′)] where v is the reaction rate, v0 is the uninhibited reaction rate, I is the inhibitor concentration and K′ is the apparent inhibition constant.
Compounds of the invention were tested in this assay and found to have pKi values at human NEP as follows.

T1 sequence (P08473 whole entry): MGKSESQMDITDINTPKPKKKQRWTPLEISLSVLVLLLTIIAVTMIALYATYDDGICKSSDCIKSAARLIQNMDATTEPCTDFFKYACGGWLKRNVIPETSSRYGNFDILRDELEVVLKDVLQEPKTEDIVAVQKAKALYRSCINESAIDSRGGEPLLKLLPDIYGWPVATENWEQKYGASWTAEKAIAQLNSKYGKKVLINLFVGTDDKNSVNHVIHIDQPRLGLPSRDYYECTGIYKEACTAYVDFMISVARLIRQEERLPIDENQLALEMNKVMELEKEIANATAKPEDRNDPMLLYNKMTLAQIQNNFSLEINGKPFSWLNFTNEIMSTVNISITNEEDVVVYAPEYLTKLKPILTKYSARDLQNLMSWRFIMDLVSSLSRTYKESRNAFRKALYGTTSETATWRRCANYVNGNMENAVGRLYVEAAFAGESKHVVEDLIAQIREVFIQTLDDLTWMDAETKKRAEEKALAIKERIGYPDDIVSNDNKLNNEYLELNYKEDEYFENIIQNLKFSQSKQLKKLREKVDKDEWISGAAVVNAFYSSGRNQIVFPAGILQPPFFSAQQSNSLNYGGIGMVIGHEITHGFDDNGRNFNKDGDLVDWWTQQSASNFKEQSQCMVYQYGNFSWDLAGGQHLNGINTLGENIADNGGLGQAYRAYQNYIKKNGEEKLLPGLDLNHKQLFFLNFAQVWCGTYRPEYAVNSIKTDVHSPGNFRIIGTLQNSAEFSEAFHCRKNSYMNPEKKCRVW

Row | SMILES | Ki [nM]
1 | O=C(NN(Cc1ccc(-c2cccc(Cl)c2)cc1)C[C@@H](O)C(=O)O)c1nc(Cl)n[nH]1 [Example 4-1, (R)-3-[N-(3′-Chlorobiphenyl-4-ylmethyl)-N′-(5-chloro-2H-[1,2,4]triazole-3-carbonyl)-hydrazino]-2-hydroxy-propionic acid] | 1.26 to 10
2 | O=C(NN(Cc1ccc(-c2cccc(Cl)c2)cc1)C[C@@H](O)C(=O)O)c1nc(O)n[nH]1 [Example 4-2, (R)-3-[N-(3′-Chlorobiphenyl-4-ylmethyl)-N′-(5-hydroxy-2H-[1,2,4]triazole-3-carbonyl)-hydrazino]-2-hydroxy-propionic acid] | 1.26 to 10
3 | O=C(NN(Cc1ccc(-c2cccc(Cl)c2)cc1)C[C@@H](O)C(=O)O)c1nnn[nH]1 [Example 4-5, (R)-3-[N-(3′-Chlorobiphenyl-4-ylmethyl)-N′-(1H-tetrazole-5-carbonyl)-hydrazino]-2-hydroxy-propionic acid] | ≤ 1
4 | O=C(NN(Cc1ccc(-c2cccc(Cl)c2)cc1)C[C@@H](O)C(=O)O)c1cc(C(=O)N2CCCC2)n[nH]1 [Example 4-11, (R)-3-{N-(3′-Chlorobiphenyl-4-ylmethyl)-N′-[5-(pyrrolidine-1-carbonyl)-2H-pyrazole-3-carbonyl]-hydrazino}-2-hydroxy-propionic acid] | ≤ 1
5 | O=C(NN(Cc1ccc(-c2cccc(Cl)c2)cc1)C[C@@H](O)C(=O)O)c1cc(C(=O)N2CCC2)n[nH]1 [Example 4-12, (R)-3-[N′-[5-(Azetidine-1-carbonyl)-2H-pyrazole-3-carbonyl]-N-(3′-chlorobiphenyl-4-ylmethyl)-hydrazino]-2-hydroxy-propionic acid] | ≤ 1
6 | O=C(NN(Cc1ccc(-c2cccc(Cl)c2)cc1)C[C@@H](O)C(=O)O)c1cc(C(=O)N2CC[C@@H](O)C2)n[nH]1 [Example 4-14, (R)-3-{N-(3′-Chlorobiphenyl-4-ylmethyl)-N′-[5-((R)-3-hydroxy-pyrrolidine-1-carbonyl)-2H-pyrazole-3-carbonyl]-hydrazino}-2-hydroxy-propionic acid] | ≤ 1
7 | CC(C)CN(C)C(=O)c1cc(C(=O)NN(Cc2ccc(-c3cccc(Cl)c3)cc2)C[C@@H](O)C(=O)O)[nH]n1 [Example 4-16, (R)-3-{N-(3′-Chlorobiphenyl-4-ylmethyl)-N′-[5-(isobutyl-methyl-carbamoyl)-2H-pyrazole-3-carbonyl]-hydrazino}-2-hydroxy-propionic acid] | ≤ 1
8 | CN(CC1CC1)C(=O)c1cc(C(=O)NN(Cc2ccc(-c3cccc(Cl)c3)cc2)C[C@@H](O)C(=O)O)[nH]n1 [Example 4-17, (R)-3-{N-(3′-Chlorobiphenyl-4-ylmethyl)-N′-[5-(cyclopropylmethyl-methyl-carbamoyl)-2H-pyrazole-3-carbonyl]-hydrazino}-2-hydroxy-propionic acid] | ≤ 1
9 | O=C(NN(Cc1ccc(-c2cccc(Cl)c2)cc1)C[C@@H](O)C(=O)O)c1cc(C(=O)N2CC(F)C2)n[nH]1 [Example 4-18, (R)-3-{N-(3′-Chlorobiphenyl-4-ylmethyl)-N′-[5-(3-fluoroazetidine-1-carbonyl)-2H-pyrazole-3-carbonyl]-hydrazino}-2-hydroxy-propionic acid] | ≤ 1
10 | COc1ccccc1-c1cc(C(=O)NN(Cc2ccc(-c3cccc(Cl)c3)cc2)C[C@@H](O)C(=O)O)[nH]n1 [Example 4-20, (R)-3-{N-(3′-Chlorobiphenyl-4-ylmethyl)-N′-[5-(2-methoxy-phenyl)-2H-pyrazole-3-carbonyl]-hydrazino}-2-hydroxy-propionic acid] | 1.26 to 10
11 | O=C(NN(Cc1ccc(-c2cccc(Cl)c2)cc1)C[C@@H](O)C(=O)O)c1cc(-c2ccccn2)n[nH]1 [Example 4-21, (R)-3-[N-(3′-Chlorobiphenyl-4-ylmethyl)-N′-(5-pyridin-2-yl-2H-pyrazole-3-carbonyl)-hydrazino]-2-hydroxy-propionic acid] | 1.26 to 10
12 | O=C(NN(Cc1ccc(-c2cccc(Cl)c2)cc1)C[C@@H](O)C(=O)O)c1cc(-c2cnccn2)n[nH]1 [Example 4-24, (R)-3-[N-(3′-Chlorobiphenyl-4-ylmethyl)-N′-(5-pyrazin-2-yl-2H-pyrazole-3-carbonyl)-hydrazino]-2-hydroxy-propionic acid] | 1.26 to 10
13 | CC(=O)c1cc(C(=O)NN(Cc2ccc(-c3cccc(Cl)c3)cc2)C[C@@H](O)C(=O)O)[nH]n1 [Example 4-25, (R)-3-[N′-(5-Acetyl-2H-pyrazole-3-carbonyl)-N-(3′-chlorobiphenyl-4-ylmethyl)-hydrazino]-2-hydroxy-propionic acid] | ≤ 1
14 | COCc1cc(C(=O)NN(Cc2ccc(-c3cccc(Cl)c3)cc2)C[C@@H](O)C(=O)O)[nH]n1 [Example 4-26, (R)-3-[N-(3′-Chlorobiphenyl-4-ylmethyl)-N′-(5-methoxymethyl-2H-pyrazole-3-carbonyl)-hydrazino]-2-hydroxy-propionic acid] | 1.26 to 10

The remaining lines, values ahead:

Row | Ki [nM] | SMILES
15 | ≤ 1 | O=C(NN(Cc1ccc(-c2cccc(Cl)c2)cc1)C[C@H](O)C(=O)O)c1cc(O)no1 [Example 3K, (S)-3-[N-(3′-Chloro-biphenyl-4-ylmethyl)-N′-(3-hydroxyisoxazole-5-carbonyl)-hydrazino]-2-hydrox-propionic Acid]
16 | 1.26 to 10 | O=C(NN(Cc1ccc(-c2cccc(Cl)c2)cc1)C[C@@H](O)C(=O)O)c1cnn[nH]1 [Example 4-3, (R)-3-[N-(3′-Chlorobiphenyl-4-ylmethyl)-N′-(3H-[1,2,3]triazole-4-carbonyl)-hydrazino]-2-hydroxy-propionic acid]
17 | ≤ 1 | O=C(NN(Cc1ccc(-c2cccc(Cl)c2)cc1)C[C@@H](O)C(=O)O)c1cn(O)nn1 [Example 4-4, (R)-3-[N-(3′-Chlorobiphenyl-4-ylmethyl)-N′-(1-hydroxy-1H-[1,2,3]triazole-4-carbonyl)-hydrazino]-2-hydroxy-propionic acid]
18 | 1.26 to 10 | O=C(NN(Cc1ccc(-c2cccc(Cl)c2)cc1)C[C@@H](O)C(=O)O)c1cc(-c2cccnc2)[nH]n1 [Example 4-9, (R)-3-[N-(3′-Chlorobiphenyl-4-ylmethyl)-N′-(5-pyridin-3-yl-1H-pyrazole-3-carbonyl)-hydrazino]-2-hydroxy-propionic acid]
19 | 1.26 to 10 | O=C(NN(Cc1ccc(-c2cccc(Cl)c2)cc1)C[C@@H](O)C(=O)O)c1cc(C2CC2)[nH]n1 [Example 4-10, (R)-3-[N-(3′-Chlorobiphenyl-4-ylmethyl)-N′-(5-cyclopropyl-1H-pyrazole-3-carbonyl)-hydrazino]-2-hydroxy-propionic acid]
20 | ≤ 1 | CN(C)C(=O)c1cc(C(=O)NN(Cc2ccc(-c3cccc(Cl)c3)cc2)C[C@@H](O)C(=O)O)[nH]n1 [Example 4-13, (R)-3-[N-(3′-Chlorobiphenyl-4-ylmethyl)-N′-(5-dimethylcarbamoyl-2H-pyrazole-3-carbonyl)-hydrazino]-2-hydroxy-propionic acid]
21 | ≤ 1 | O=C(NN(Cc1ccc(-c2cccc(Cl)c2)cc1)C[C@@H](O)C(=O)O)c1cc(-c2ccccc2Cl)n[nH]1 [Example 4-15, (R)-3-{N-(3′-Chlorobiphenyl-4-ylmethyl)-N′-[5-(2-chlorophenyl)-2H-pyrazole-3-carbonyl]-hydrazino}-2-hydroxy-propionic acid]
22 | 1.26 to 10 | O=C(NN(Cc1ccc(-c2cccc(Cl)c2)cc1)C[C@@H](O)C(=O)O)c1cc(-c2ccccc2O)n[nH]1 [Example 4-19, (R)-3-{N-(3′-Chlorobiphenyl-4-ylmethyl)-N′-[5-(2-hydroxy-phenyl)-2H-pyrazole-3-carbonyl]-hydrazino}-2-hydroxy-propionic acid]
23 | ≤ 1 | CCCCc1cc(C(=O)NN(Cc2ccc(-c3cccc(Cl)c3)cc2)C[C@@H](O)C(=O)O)[nH]n1 [Example 4-22, (R)-3-[N′-(5-Butyl-2H-pyrazole-3-carbonyl)-N-(3′-chlorobiphenyl-4-ylmethyl)-hydrazino]-2-hydroxy-propionic acid]
24 | ≤ 1 | O=C(O)c1cc(C(=O)NN(Cc2ccc(-c3cccc(Cl)c3)cc2)C[C@@H](O)C(=O)O)[nH]n1 [Example 4-23, 5-[N′-((R)-2-Carboxy-2-hydroxy-ethyl)-N′-(3′-chlorobiphenyl-4-ylmethyl)-hydrazinocarbonyl]-1H-pyrazole-3-carboxylic acid]
25 | 1.26 to 10 | CC(C)(O)c1cc(C(=O)NN(Cc2ccc(-c3cccc(Cl)c3)cc2)C[C@@H](O)C(=O)O)[nH]n1 [Example 4-27, (R)-3-{N-(3′-Chlorobiphenyl-4-ylmethyl)-N′-[5-(1-hydroxy-1-methyl-ethyl)-2H-pyrazole-3-carbonyl]-hydrazino}-2-hydroxy-propionic acid]
26 | 12.6 to 100 | O=C(NN(Cc1ccc(-c2cccc(Cl)c2)cc1)C[C@@H](O)C(=O)O)c1cnc(-c2ccccc2)o1 [Example 4-28, (R)-3-[N-(3′-Chlorobiphenyl-4-ylmethyl)-N′-(2-phenyl-oxazole-5-carbonyl)-hydrazino]-2-hydroxy-propionic acid]
